Target: TLR2 (Homo sapiens, UniProt O60603)
Assay: TLR2 agonist screening assay, HEK-Blue TLR2 reporter cell line (NF-kB-driven SEAP, absorbance at 600 nm)
Type: cell-based
Design: host or cells: HEK-293 (HEK-Blue TLR2 reporter cell line)
Conditions: HEK-Blue TLR2 reporter cells, agonist mode; average of all runs (Table 4)
Summary of the method: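 EC50 values come from 600 nm absorbance of SEAP-converted substrate after overnight agonist exposure. The reporter line was HEK-293 engineered with TLR2 and an NF-kB-SEAP construct, seeded at about 40,000 cells per well 16-24 h beforehand. Compounds were added at 1% final DMSO.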

TLR2, sequence (O60603 21-784): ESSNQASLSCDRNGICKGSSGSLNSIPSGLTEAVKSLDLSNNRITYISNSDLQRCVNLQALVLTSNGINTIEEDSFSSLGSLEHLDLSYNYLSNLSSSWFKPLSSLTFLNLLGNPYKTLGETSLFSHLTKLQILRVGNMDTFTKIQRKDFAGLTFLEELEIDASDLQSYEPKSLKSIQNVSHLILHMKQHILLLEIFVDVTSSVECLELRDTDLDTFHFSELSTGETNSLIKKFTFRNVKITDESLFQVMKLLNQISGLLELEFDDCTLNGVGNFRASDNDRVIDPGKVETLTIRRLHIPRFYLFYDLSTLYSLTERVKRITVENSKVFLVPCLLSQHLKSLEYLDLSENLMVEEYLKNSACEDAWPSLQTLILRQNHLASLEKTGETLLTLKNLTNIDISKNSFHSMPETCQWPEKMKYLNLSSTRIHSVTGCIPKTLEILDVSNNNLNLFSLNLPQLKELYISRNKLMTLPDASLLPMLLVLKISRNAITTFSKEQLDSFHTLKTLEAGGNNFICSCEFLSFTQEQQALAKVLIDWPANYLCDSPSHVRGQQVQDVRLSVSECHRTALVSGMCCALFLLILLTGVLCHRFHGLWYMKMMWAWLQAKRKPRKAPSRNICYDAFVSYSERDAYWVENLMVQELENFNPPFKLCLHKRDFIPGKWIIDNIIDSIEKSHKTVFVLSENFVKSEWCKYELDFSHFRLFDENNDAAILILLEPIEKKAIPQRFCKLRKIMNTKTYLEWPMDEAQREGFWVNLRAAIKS

Which EC50 does the source give for `CCCCCCCCCCCCCCNC(=O)[C@H]1CN(C(=O)c2cccc(C(=O)N3C[C@@H](C(=O)N[C@H]4C[C@@H]4c4ccccc4)[C@H](C(=O)N[C@H]4C[C@@H]4c4ccccc4)C3)c2)CCN1C(C)=O` [Compound 172, (3S,4S)-1-(3-((R)-4-acetyl-3-(tetradecylcarbamoyl)piperazine-1-carbonyl)benzoyl)-N3,N4-bis((1S,2R)-2-phenylcyclopropyl)pyrrolidine-3,4-dicarboxamide] here?
The EC50 was over 1000 nM.

With `CCCCCCCC(=O)N[C@@H](CNC(=O)c1ccc(C(=O)N2C[C@@H](C(=O)N[C@H]3C[C@@H]3c3ccccc3)[C@H](C(=O)N[C@H]3C[C@@H]3c3ccccc3)C2)cc1)C(=O)NCCCCCC` [Compound 173, (3S,4S)-1-(4-(((S)-3-(hexylamino)-2-octanamido-3-oxopropyl)carbamoyl)benzoyl)-N3,N4-bis((1S,2R)-2-phenylcyclopropyl)pyrrolidine-3,4-dicarboxamide] as the compound, how does the EC50 read?
The EC50 was 0.1 to 50 nM.

Which EC50 does the source give for `CCCCCCCCN1CC(C(=O)NCCCCCC)CN(Cc2ccc(C(=O)N3C[C@@H](C(=O)N[C@H]4C[C@@H]4c4ccccc4)[C@H](C(=O)N[C@H]4C[C@@H]4c4ccccc4)C3)cc2)C1=O` (stereo partly drawn) [Compound 178, (3S,4S)-1-(4-((5-(hexylcarbamoyl)-3-octyl-2-oxotetrahydropyrimidin-1 (2H)-yl)methyl)benzoyl)-N3,N4-bis((1S,2R)-2-phenylcyclopropyl)pyrrolidine-3,4-dicarboxamide] here?
The EC50 was 351 to 1000 nM.

`CCCCCCCCCCCCCCNC(=O)C1COC(=O)N(Cc2ccc(C(=O)N3C[C@@H](C(=O)N[C@H]4C[C@@H]4c4ccccc4)[C@H](C(=O)N[C@H]4C[C@@H]4c4ccccc4)C3)cc2)C1` (stereo partly drawn) [Compound 179] was tested. Which EC50 did it give?
Its EC50 is over 1000 nM.

With `CCCCCCCCCCCCCCCN1C[C@@H](NC(=O)c2ccc(C(=O)N3C[C@@H](C(=O)N[C@H]4C[C@@H]4c4ccccc4)[C@H](C(=O)N[C@H]4C[C@@H]4c4ccccc4)C3)cc2)CCC1=O` [Compound 180, (3S,4S)-1-(4-(((S)-6-oxo-1-pentadecylpiperidin-3-yl)carbamoyl)benzoyl)-N3,N4-bis((1S,2R)-2-phenylcyclopropyl)pyrrolidine-3,4-dicarboxamide] as the compound, how does the EC50 read?
Its EC50 is over 1000 nM.

For `CO[C@H]1CN(C(=O)c2ccc(C(=O)N3C[C@@H](C(=O)N[C@H]4C[C@@H]4c4ccccc4)[C@H](C(=O)N[C@H]4C[C@@H]4c4ccccc4)C3)cc2)C[C@@H]1NC(=O)NCCc1ccc(F)cc1` [Compound 182, (3S,4S)-1-(4-((3S,4S)-3-(3-(4-fluorophenethyl)ureido)-4-methoxypyrrolidine-1-carbonyl)benzoyl)-N3,N4-bis((1S,2R)-2-phenylcyclopropyl)pyrrolidine-3,4-dicarboxamide], which EC50 is on record?
Its EC50 is over 1000 nM.

Which EC50 does the source give for `CO[C@H]1CN(C(=O)c2ccc(C(=O)N3C[C@@H](C(=O)N[C@H]4C[C@@H]4c4ccccc4)[C@H](C(=O)N[C@H]4C[C@@H]4c4ccccc4)C3)cc2)C[C@@H]1NC(=O)NCc1ccc(F)cc1` [Compound 183, (3S,4S)-1-(4-((3S,4S)-3-(3-(4-fluorobenzyl)ureido)-4-methoxypyrrolidine-1-carbonyl)benzoyl)-N3,N4-bis((1S,2R)-2-phenylcyclopropyl)pyrrolidine-3,4-dicarboxamide] here?
Its EC50 is 51 to 350 nM.

How did the EC50 turn out when `CCCCCCNC(=O)[C@H](CNC(=O)c1ccc(C(=O)N2C[C@@H](C(=O)N[C@H]3C[C@@H]3c3ccccc3)[C@H](C(=O)N[C@H]3C[C@@H]3c3ccccc3)C2)cc1)NC(=O)NCc1ccc(F)cc1` [Compound 186, (3S,4S)-1-(4-(((S)-2-(3-(4-fluorobenzyl)ureido)-3-(hexylamino)-3-oxopropyl)carbamoyl)benzoyl)-N^3,N^4-bis((1S,2R)-2-phenylcyclopropyl) pyrrolidine-3,4-dicarboxamide] was run?
Its EC50 is 0.1 to 50 nM.

With `CCCCCCCCCCCCCCNC(=O)[C@H]1CN(S(=O)(=O)c2cccc(C(=O)N3C[C@@H](C(=O)N[C@H]4C[C@@H]4c4ccccc4)[C@H](C(=O)N[C@H]4C[C@@H]4c4ccccc4)C3)c2)CCN1C(C)=O` [Compound 192, (3S,4S)-1-(3-(((R)-4-acetyl-3-(tetradecylcarbamoyl)piperazin-1-yl)sulfonyl)benzoyl)-N3,N4-bis((1S,2R)-2-phenylcyclopropyl)pyrrolidine-3,4-dicarboxamide] as the compound, how does the EC50 read?
The EC50 was 351 to 1000 nM.

Which EC50 does the source give for `CCCCCCCCCCCCCCNC(=O)[C@@H]1CN(S(=O)(=O)c2cccc(C(=O)N3C[C@@H](C(=O)N[C@H]4C[C@@H]4c4ccccc4)[C@H](C(=O)N[C@H]4C[C@@H]4c4ccccc4)C3)c2)CCN1C(C)=O` [Compound 193, (3S,4S)-1-(3-(((S)-4-acetyl-3-(tetradecylcarbamoyl)piperazin-1-yl)sulfonyl)benzoyl)-N3,N4-bis((1S,2R)-2-phenylcyclopropyl)pyrrolidine-3,4-dicarboxamide] here?
The EC50 was 51 to 350 nM.

How did the EC50 turn out when `CCCCCCCCCCCCCCC(=O)NC1CCN(S(=O)(=O)c2cccc(C(=O)N3C[C@@H](C(=O)N[C@H]4C[C@@H]4c4ccccc4)[C@H](C(=O)N[C@H]4C[C@@H]4c4ccccc4)C3)c2)CC1` [Compound 194, (3S,4S)-1-(3-((4-pentadecanamidopiperidin-1-yl)sulfonyl)benzoyl)-N3,N4-bis((1S,2R)-2-phenylcyclopropyl)pyrrolidine-3,4-dicarboxamide] was run?
The EC50 was over 1000 nM.

`CCCCCCCCCCCCCCNC(=O)[C@H]1CN(S(=O)(=O)c2ccc(C(=O)N3C[C@@H](C(=O)N[C@H]4C[C@@H]4c4ccccc4)[C@H](C(=O)N[C@H]4C[C@@H]4c4ccccc4)C3)cc2)CCN1C(C)=O` [Compound 195, (3S,4S)-1-(4-(((R)-4-acetyl-3-(tetradecylcarbamoyl)piperazin-1-yl)sulfonyl)benzoyl)-N3,N4-bis((1S,2R)-2-phenylcyclopropyl)pyrrolidine-3,4-dicarboxamide] was tested. Which EC50 did it give?
Its EC50 is over 1000 nM.

How did the EC50 turn out when `CCCCCCCCCCCCCCNC(=O)[C@@H]1CN(S(=O)(=O)c2ccc(C(=O)N3C[C@@H](C(=O)N[C@H]4C[C@@H]4c4ccccc4)[C@H](C(=O)N[C@H]4C[C@@H]4c4ccccc4)C3)cc2)CCN1C(C)=O` [Compound 196, (3S,4S)-1-(4-(((S)-4-acetyl-3-(tetradecylcarbamoyl)piperazin-1-yl)sulfonyl)benzoyl)-N3,N4-bis((1S,2R)-2-phenylcyclopropyl)pyrrolidine-3,4-dicarboxamide] was run?
Its EC50 is over 1000 nM.

Which EC50 does the source give for `CCCCCCCCCNC(=O)[C@H](CNC(=O)c1ccc(C(=O)N2C[C@@H](C(=O)N[C@H]3C[C@@H]3c3ccccc3)[C@H](C(=O)N[C@H]3C[C@@H]3c3ccccc3)C2)cc1)NC(=O)CCCCCCCCC` [Compound 207, (3S,4S)-1-(4-(((S)-2-decanamido-3-(nonylamino)-3-oxopropyl)carbamoyl)benzoyl)-N3,N4-bis((1S,2R)-2-phenylcyclopropyl)pyrrolidine-3,4-dicarboxamide] here?
Its EC50 is 0.1 to 50 nM.

With `CCCCCCCCCCCCCNC(=O)N[C@@H]1CN(C(=O)c2ccc(C(=O)N3C[C@@H](C(=O)N[C@H]4C[C@@H]4c4ccccc4)[C@H](C(=O)N[C@H]4C[C@@H]4c4ccccc4)C3)cc2)C[C@@H]1OC` [Compound 208, (3S,4S)-1-(4-((3S,4R)-3-methoxy-4-(3-tridecylureido)pyrrolidine-1-carbonyl)benzoyl)-N3,N4-bis((1S,2R)-2-phenylcyclopropyl)pyrrolidine-3,4-dicarboxamide] as the compound, how does the EC50 read?
Its EC50 is 0.1 to 50 nM.

Which EC50 does the source give for `CCCCCCCCCCCCCCOC(=O)N[C@H]1CN(C(=O)c2ccc(C(=O)N3C[C@@H](C(=O)N[C@H]4C[C@@H]4c4ccccc4)[C@H](C(=O)N[C@H]4C[C@@H]4c4ccccc4)C3)cc2)C[C@@H]1OC` [Compound 218, Tetradecyl ((3S,4S)-1-(4-((3S,4S)-3,4-bis(((1S,2R)-2-phenylcyclopropyl)carbamoyl)pyrrolidine-1-carbonyl)benzoyl)-4-methoxypyrrolidin-3-yl)carbamate] here?
The EC50 was 351 to 1000 nM.

With `O=C1CCCCCCCCCCCCNC(=O)[C@H](CNC(=O)c2ccc(C(=O)N3C[C@@H](C(=O)N[C@H]4C[C@@H]4c4ccccc4)[C@H](C(=O)N[C@H]4C[C@@H]4c4ccccc4)C3)cc2)N1` [Compound 225, (3S,4S)-1-(4-((((S)-3,17-dioxo-1,4-diazacycloheptadecan-2-yl)methyl)carbamoyl)benzoyl)-N3,N4-bis((1S,2R)-2-phenylcyclopropyl)pyrrolidine-3,4-dicarboxamide] as the compound, how does the EC50 read?
Its EC50 is 351 to 1000 nM.

With `CCCCCCNC(=O)[C@H](CNC(=O)c1ccc(C(=O)N2C[C@@H](C(=O)N[C@H]3C[C@@H]3c3ccccc3)[C@H](C(=O)N[C@H]3C[C@@H]3c3ccccc3)C2)cc1)NC(=O)OCCCCCC` [Compound 226, hexyl ((S)-3-(4-((3S,4S)-3,4-bis(((1S,2R)-2-phenylcyclopropyl)carbamoyl)pyrrolidine-1-carbonyl)benzamido)-1-(hexylamino)-1-oxopropan-2-yl)carbamate] as the compound, how does the EC50 read?
Its EC50 is over 1000 nM.

How did the EC50 turn out when `CCCCCCCCCCCCCNC(=O)N[C@H]1CN(c2ncc(-c3ccc(C(=O)N4C[C@@H](C(=O)N[C@H]5C[C@@H]5c5ccccc5)[C@H](C(=O)N[C@H]5C[C@@H]5c5ccccc5)C4)cc3)o2)C[C@@H]1OC` [Compound 234, (3S,4S)-1-(4-(2-((3S,4S)-3-methoxy-4-(3-tridecylureido)pyrrolidin-1-yl)oxazol-5-yl)benzoyl)-N3,N4-bis((1S,2R)-2-phenylcyclopropyl)pyrrolidine-3,4-dicarboxamide] was run?
The EC50 was over 1000 nM.

How did the EC50 turn out when `CCCCCCCCCC(=O)N[C@@H](CNC(=O)Nc1ccc(C(=O)N2C[C@@H](C(=O)N[C@H]3C[C@@H]3c3ccccc3)[C@H](C(=O)N[C@H]3C[C@@H]3c3ccccc3)C2)cc1)C(=O)NCCCCCC` [Compound 235, (3S,4S)-1-(4-(3-((S)-2-decanamido-3-(hexylamino)-3-oxopropyl)ureido)benzoyl)-N3,N4-bis((1S,2R)-2-phenylcyclopropyl)pyrrolidine-3,4-dicarboxamide] was run?
Its EC50 is over 1000 nM.

`CCCCCCCCCCCCCCC(=O)N[C@H]1CN(C(=O)c2ccc(C(=O)N3C[C@@H](C(=O)N[C@H]4C[C@@H]4c4ccccc4)[C@H](C(=O)N[C@H]4C[C@@H]4c4ccccc4)C3)cc2)C[C@H]1OC` [Compound 236, (3S,4S)-1-(4-((3R,4S)-3-methoxy-4-pentadecanamidopyrrolidine-1-carbonyl)benzoyl)-N3,N4-bis ((1S,2R)-2-phenylcyclopropyl) pyrrolidine-3,4-dicarboxamide] was tested. Which EC50 did it give?
The EC50 was 0.1 to 50 nM.

Source: US11951094B2, “TLR2 modulator compounds, pharmaceutical compositions and uses thereof” (Axial Therapeutics, Inc., priority 2020, dated 2024)
